Assays:
[1] = tested on: SAGPY Arrowhead (Pygmaea); test: Preemergence weed control, flooded paddy (Table III); assay type: in vivo, Sagittaria pygmaea; design: scale not given here
Procedure: (§1) Preemergence herbicidal activity under flooded paddy conditions is determined as follows: plant seeds or propagating organs are planted in the top 0.5 cm of silt loam soil in 32 oz. plastic containers with a diameter of 10.5 cm and no drainage holes. Water is added to these containers and maintained at 1.5 to 3 cm above the soil surface for the duration of the experiment. The test compounds are applied as aqueous/acetone mixtures 50/50 v/v pipetted directly into the flood water to give the equivalent of about 0.0313 to 0.500 kg/ha of active ingredient. The treated containers are placed on greenhouse benches and cared for in accordance with conventional greenhouse procedures. Three to four weeks after treatment, the test is terminated and each container is examined and herbicidal effect rated according to the rating system provided in Example 185. The compounds evaluated are reported by compound number given in Example 185.

[2] = tested on: Rice, Tebonnet, Oryza sativa; test: Preemergence herbicidal evaluation, ORYSAT; assay type: in vivo, (L.) Tebonnet; details: 0.2500 kg/ha
Method in brief: (§2)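 Preemergence spray, aqueous acetone solution, ~0.0156–0.500 kg/ha, applied to freshly seeded soil cups. Greenhouse, 4–5 wk. Visual 0–9 rating vs untreated control (stand, vigor, malformation, size, chlorosis, overall appearance).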

CYPIR Rice Flatsedge = test: Preemergence weed control, flooded paddy (Table III); assay type: in vivo, Cyperus iria; design: scale not given here
Procedure: as §1

[3] = tested on: Ragweed, Common, Ambrosia artemisifolia; test: Preemergence herbicidal evaluation, AMBEL; assay type: in vivo, L.; details: 0.2500 kg/ha
Method in brief: as §2

[4] = tested on: Morningglory Spp., Ipomoea Spp.; test: Preemergence herbicidal evaluation, IPOSS; assay type: in vivo; details: 0.2500 kg/ha
Text: (§3) Results of herbicide evaluation are expressed on a rating scale (0-9). The scale is based upon a visual observation of plant stand, vigor, malformation, size, chlorosis and overall plant appearance as compared with a control.
The preemergence herbicidal activity of the test compounds of the present invention is exemplified by the following tests in which the seeds of a variety of monocotyledonous and dicotyledonous plants are separately mixed with potting soil and planted on top of approximately one inch of soil in separate pint cups. After planting, the cups are sprayed with the selected aqueous acetone solution containing test compound in sufficient quantity to provide the equivalent of about 0.0156 to 0.500 kg per hectare of test compound per cup. The treated cups are then placed on greenhouse benches, watered and cared for in accordance with conventional greenhouse procedures. From four to five weeks after treatment, the tests are terminated and each cup is examined and rated according to the rating system provided in Example 185.
The compounds evaluated are reported by compound number given in Example 185.

[5] = tested on: Rice, Tebonnet, Oryza sativa; test: Postemergence herbicidal evaluation, ORYSAT; assay type: in vivo, (L.) Tebonnet; details: 0.2500 kg/ha
Method in brief: (§4)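 Rates of about 0.0157–0.500 kg/ha were delivered through a 40 psi spray nozzle to seedlings grown around two weeks, using a 50/50 acetone/water vehicle with 0.5% TWEEN 20. A 0–9 visual score versus control followed 4–5 weeks later.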

[6] = tested on: Barnyardgrass, Echinochloa crus-galli; test: Preemergence herbicidal evaluation, ECHCG; assay type: in vivo, (L.) Beau; details: 0.2500 kg/ha
Method in brief: as §2

Corn, Field, Zea mays [7] = test: Preemergence herbicidal evaluation, ZEAMX; assay type: in vivo, L.; details: 0.2500 kg/ha
Method in brief: as §2

CYPSE Flatsedge [8] = test: Preemergence weed control, flooded paddy (Table III); assay type: in vivo, Cyperus serotinus; design: scale not given here
Procedure: as §1

[9] = tested on: ECHORC Watergrass (Calif.); test: as above; assay type: in vivo, Echinochloa oryzoides; design: scale not given here
Procedure: as §1

[10] = tested on: Velvetleaf, Abutilon theophrasti; test: Postemergence herbicidal evaluation, ABUTH; assay type: in vivo, Medic.; details: 0.2500 kg/ha
Method in brief: as §4

Corn, Field, Zea mays [11] = test: Postemergence herbicidal evaluation, ZEAMX; assay type: in vivo, L.; details: 0.2500 kg/ha
Method in brief: as §4

MOOVA Monochoria [12] = test: Preemergence weed control, flooded paddy (Table III); assay type: in vivo, Monochoria vaginalis; design: scale not given here
Procedure: as §1

[13] = tested on: Wheat, Winter, cv Riband, Triticum aestivum; test: Preemergence herbicidal evaluation, TRZAWR; assay type: in vivo; details: 0.2500 kg/ha
Method in brief: as §2

CYPSE Flatsedge [14] = test: Postemergence weed control, flooded paddy (Table IV); assay type: in vivo, Cyperus serotinus; design: scale not given here
Method in brief: (§5)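 Weeds 3 to 5 cm tall and rice seedlings at the 1.5 to 2.5 leaf stage were flooded, water held 1.5 to 3 cm above soil. Compounds in 50/50 v/v aqueous/acetone went into the flood water at about 0.0313 to 0.500 kg/ha. Injury was rated visually three to four weeks later.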

MOOVA Monochoria [15] = test: as above; assay type: in vivo, Monochoria vaginalis; design: scale not given here
Method in brief: as §5

[16] = tested on: Foxtail, Green, Setaria viridis; test: Preemergence herbicidal evaluation, SETVI; assay type: in vivo, (L.) Beau; details: 0.2500 kg/ha
Method in brief: as §2

[17] = tested on: Sicklepod, Cassia obtusifolia; test: Preemergence herbicidal evaluation, CASOB; assay type: in vivo, L.; details: 0.2500 kg/ha
Method in brief: as §2

[18] = tested on: Sicklepod, Cassia obtusifolia; test: Postemergence herbicidal evaluation, CASOB; assay type: in vivo, L.; details: 0.2500 kg/ha
Method in brief: as §4

[19] = tested on: Wheat, Winter, cv Riband, Triticum aestivum; test: Postemergence herbicidal evaluation, TRZAWR; assay type: in vivo; details: 0.2500 kg/ha
Method in brief: as §4

[20] = tested on: Morningglory Spp., Ipomoea Spp.; test: Postemergence herbicidal evaluation, IPOSS; assay type: in vivo; details: 0.2500 kg/ha
Procedure: In the tests, seedling plants are grown in jiffy flats for about two weeks. The test compounds are dispersed in 50/50 acetone/water mixtures containing 0.5% TWEEN®20, a polyoxyethylene sorbitan monolaurate surfactant of Atlas Chemical Industries, in sufficient quantities to provide the equivalent of about 0.0157 kg to 0.500 kg per hectare of active compound when applied to the plants through a spray nozzle operating at 40 psi for a predetermined time. After spraying, the plants are placed on greenhouse benches and are cared for in accordance with conventional greenhouse procedures. From four to five weeks after treatment, the seedling plants are examined and rated according to the rating system set forth below. Where more than one test is involved for a given compound, the data are averaged.
as §3

COc1cc(C)ccc1-c1nsc2ccc(-n3c(=O)cc(C(F)(F)F)n(C)c3=O)cc12 [Compound 7, 3-[3-(2-Methoxy-p-tolyl)-1,2-benzisothiazol-5-yl]-1-methyl-6-(trifluoromethyl)-2,4(1H,3H)-pyrimidinedione] was tested, and the herbicidal effect rating ([1]; 0.0313 kg/ha) was 6.0, the herbicidal effect rating ([1]; 0.0625 kg/ha) was 8.0 and the herbicidal effect rating ([1]; 0.1250 kg/ha) was 9.0. The herbicidal effect rating ([1]; 0.2500 kg/ha) was 9.0, the herbicidal effect rating ([1]; 0.5000 kg/ha) was 9.0 and the “herbicide rating (0-9)” value [2] was 8.0. For the same compound, the herbicidal effect rating (CYPIR Rice Flatsedge; 0.0313 kg/ha) was 9.0, the herbicidal effect rating (CYPIR Rice Flatsedge; 0.0625 kg/ha) was 9.0 and the herbicidal effect rating (CYPIR Rice Flatsedge; 0.1250 kg/ha) was 9.0. The herbicidal effect rating (CYPIR Rice Flatsedge; 0.2500 kg/ha) was 9.0, the herbicidal effect rating (CYPIR Rice Flatsedge; 0.5000 kg/ha) was 9.0 and the “herbicide rating (0-9)” value [3] was 9.0. For the same compound, the “herbicide rating (0-9)” value [4] was 9.0, the “herbicide rating (0-9)” value [5] was 6.5 and the “herbicide rating (0-9)” value [6] was 9.0. The “herbicide rating (0-9)” value (Corn, Field, Zea mays [7]) was 7.0, the herbicidal effect rating (CYPSE Flatsedge [8]; 0.0313 kg/ha) was 7.0 and the herbicidal effect rating (CYPSE Flatsedge [8]; 0.0625 kg/ha) was 7.0. The herbicidal effect rating (CYPSE Flatsedge [8]; 0.1250 kg/ha) was 8.0, the herbicidal effect rating (CYPSE Flatsedge [8]; 0.2500 kg/ha) was 7.0 and the herbicidal effect rating (CYPSE Flatsedge [8]; 0.5000 kg/ha) was 9.0. It also gave a herbicidal effect rating ([9]; 0.0313 kg/ha) of 9.0, a herbicidal effect rating ([9]; 0.0625 kg/ha) of 9.0 and a herbicidal effect rating ([9]; 0.1250 kg/ha) of 9.0. The herbicidal effect rating ([9]; 0.2500 kg/ha) was 9.0, the herbicidal effect rating ([9]; 0.5000 kg/ha) was 9.0 and the “herbicide rating (0-9)” value [10] was 9.0. The “herbicide rating (0-9)” value (Corn, Field, Zea mays [11]) was 7.0, the herbicidal effect rating (MOOVA Monochoria [12]; 0.0313 kg/ha) was 9.0 and the herbicidal effect rating (MOOVA Monochoria [12]; 0.0625 kg/ha) was 9.0. The herbicidal effect rating (MOOVA Monochoria [12]; 0.1250 kg/ha) was 9.0, the herbicidal effect rating (MOOVA Monochoria [12]; 0.2500 kg/ha) was 9.0 and the herbicidal effect rating (MOOVA Monochoria [12]; 0.5000 kg/ha) was 9.0. For the same compound, the “herbicide rating (0-9)” value [13] was 6.0, the herbicidal effect rating (CYPSE Flatsedge [14]; 0.1250 kg/ha) was 9.0 and the herbicidal effect rating (CYPSE Flatsedge [14]; 0.2500 kg/ha) was 9.0. It also gave a herbicidal effect rating (CYPSE Flatsedge [14]; 0.5000 kg/ha) of 8.0, a herbicidal effect rating (MOOVA Monochoria [15]; 0.1250 kg/ha) of 9.0 and a herbicidal effect rating (MOOVA Monochoria [15]; 0.2500 kg/ha) of 9.0. For the same compound, the herbicidal effect rating (MOOVA Monochoria [15]; 0.5000 kg/ha) was 9.0, the “herbicide rating (0-9)” value [16] was 9.0 and the “herbicide rating (0-9)” value [17] was 9.0. The “herbicide rating (0-9)” value [18] was 9.0, the “herbicide rating (0-9)” value [19] was 7.0 and the “herbicide rating (0-9)” value [20] was 9.0.

Reference: US6156700A, “3-(1,2-Benzisothiazol- and isoxazol-5-yl)-2,4(1H,3H)-pyrimidinedione or thione and 3-(1,2-benzisothiazol- and isoxazol-5-yl)-4(3H)-pyrimidinone or thione herbicidal agents” (American Cyanmid Company, priority 1998, dated 2000)
